From ChEMBL document CHEMBL1799932, “Antimalarial pyrido[1,2-a]benzimidazoles” (J Med Chem, 2011) come the findings set out here.

Where only a bound is given, the exact number is not on record here.

A short description of data set [1]: Metabolic stability in human liver microsomes assessed as degradation half life after 60 mins by LC-MS analysis. Format: ADME, Microsome. On the technique in general: Liver microsomes are vesicles of endoplasmic reticulum, rich in cytochrome P450 enzymes.
Data set [2] concerns Rattus norvegicus. The data set is described as follows: Cmax in fasted Sprague-Dawley rat assessed as 1-(2-Diethylaminoethylamino)-3-[4-(trifluoromethyl)phenyl]-pyrido[1,2-a]benzimidazole-4-carbonitrile at 20 mg/kg, po after 48 hrs by LC-MS analysis. Type of data set: ADME, organism-based. Details: dose 20 mg/kg, route oral. The conditions noted are these: in vivo.
The subject of data set [3] is Plasmodium berghei. Nature of the data set: Antimalarial activity against GFP-transfected Plasmodium berghei strain ANKA infected in NMRI mouse assessed as reduction in parasitemia at 25 mg/kg, po administered as single dose measured on day 2 by FACS analysis. Type of data set: functional. Details: scale not given: the % may be the effect or the level left. A general note: In flow cytometry, cells or beads pass a laser one at a time.

Data set [4] relates to Rattus norvegicus. The data set is described as follows: Drug excretion in fasted Sprague-Dawley rat urine assessed as 1-(2-Diethylaminoethylamino)-3-[4-(trifluoromethyl)phenyl]-pyrido[1,2-a]benzimidazole-4-carbonitrile at 5 mg/kg, iv after 48 hrs by LC-MS analysis. Format: ADME, organism-based. On the set-up: dose 5 mg/kg, route intravenous. The conditions noted are these: in vivo.

In data set [5] the test system is Rattus norvegicus. Nature of the data set: Oral bioavailability in fasted Sprague-Dawley rat assessed as 1-(2-Diethylaminoethylamino)-3-[4-(trifluoromethyl)phenyl]-pyrido[1,2-a]benzimidazole-4-carbonitrile at 20 mg/kg, po after 48 hrs by LC-MS analysis. Format: ADME, organism-based. As to conditions: in vivo.
The subject of data set [6] is Rattus norvegicus. The data set is described as follows: AUC (0 to tlast) in fasted Sprague-Dawley rat assessed as 1-(2-Ethylaminoethylamino)-3-[4-(trifluoromethyl)phenyl]- pyrido[1,2-a]benzimidazole-4-carbonitrile level at 5 mg/kg, iv after 48 hrs by LC-MS analysis. Type of data set: ADME, organism-based, Plasma. On the set-up: time < 48 hr, dose 5 mg/kg, route intravenous. The conditions noted are these: in vivo.

Data set [7] deals with Plasmodium berghei. The data set is described as follows: Antimalarial activity against GFP-transfected Plasmodium berghei strain ANKA infected in NMRI mouse assessed as reduction in parasitemia at 25 mg/kg, po administered as single dose measured on day 4 by FACS analysis. Type of data set: functional. On the set-up: scale not given: the % may be the effect or the level left.

Data set [8] deals with Plasmodium berghei. The data set is described as follows: Antimalarial activity against GFP-transfected Plasmodium berghei strain ANKA infected in NMRI mouse assessed as reduction in parasitemia at 50 mg/kg, po administered as single dose measured on day 2 by FACS analysis. Format: functional. On the set-up: scale not given: the % may be the effect or the level left.
Data set [9] concerns Rattus norvegicus. The data set is described as follows: Drug excretion in fasted Sprague-Dawley rat urine assessed as 1-(2-Ethylaminoethylamino)-3-[4-(trifluoromethyl)phenyl]- pyrido[1,2-a]benzimidazole-4-carbonitrile level at 20 mg/kg, po after 48 hrs by LC-MS analysis. The conditions noted are these: in vivo. Format: ADME, organism-based. On the set-up: dose 20 mg/kg, route oral.

Data set [10] deals with Plasmodium berghei. Nature of the data set: Antimalarial activity against GFP-transfected Plasmodium berghei strain ANKA infected in NMRI mouse assessed as reduction in parasitemia at 50 mg/kg, po administered as single dose measured on day 3 by FACS analysis. Format: functional. Details: scale not given: the % may be the effect or the level left.
The test system of data set [11] is Plasmodium berghei. Nature of the data set: Antimalarial activity against GFP-transfected Plasmodium berghei strain ANKA infected in NMRI mouse assessed as increase in mean survival time at 50 mg/kg, po administered as single dose (reference value: 5 days ).

For `CCN(CC)CCNc1cc(-c2ccc(C(F)(F)F)cc2)c(C#N)c2nc3ccccc3n12.Cl.Cl`, the half-life in data set [1] was 13.7 min. Further, in the data set on Rattus norvegicus [2], the Cmax was 380 nM. Also, the Activity was determined as 13.07% in the data set on Plasmodium berghei [3]; 0.39% with Rattus norvegicus [4]; 51.13% in the data set on Plasmodium berghei [7]; 5.15% with Plasmodium berghei [8]; 0.05% in the data set with Rattus norvegicus [9]; 29.76% in the data set on Plasmodium berghei [10]. In addition, in the data set on Rattus norvegicus [5], the F is over 22%. For the same compound, in the data set with Rattus norvegicus [6], the AUClast came out at 666 µM·min. The MSD in the data set with Plasmodium berghei [11] was determined as 8 days.

As usually defined, the half-life is how long it takes for the measured level to halve. Broadly, the Cmax is the highest concentration seen after dosing.
